Legend:
Conditions in all cases: 10 μM, 48 hours
BT-549 = system: BT-549
IGROV1 = system: IGROV1
UACC-62 = system: UACC-62
SR = assay: NCI screen antiproliferative activity, sulforhodamine B, Leukemia panel; type: cell-based, human
HL-60(TB) = assay: as above; type: cell-based, human
Protocol: (§1) The antiproliferative activity of compounds were determined in the National Cancer Institute (NCI) screen (Drug. Dev. Res. 1995, 34, 91-109; J. Natl. Cancer Inst. 1990, 82, 1107-1112; Drug Dev. Res. 1995, 34, 91-109). For certain compounds, cells of approximately 60 different human cancer cell lines were incubated for 48 hours with five 10-fold dilutions of the tested compounds starting from 100 μM and then treated with sulforhodamine B dye. For other compounds, cells of approximately 60 different human cancer cell lines were incubated for 48 hours with a concentration of 10 μM test compound. The ratios of recorded optical densities relative to that of the control were plotted as a function of the common logarithm of the tested compound concentrations or growth percent (for single concentration tests). The interpolation between the points located above and below the 50% percentage growth provided 50% growth inhibition (GI50) values. Total growth inhibition (TGI) and 50% lethal concentrations (LC50) were also calculated using reported methods. A “-” means not tested and/or not-determined.

CCRF-CEM = assay: as above; type: cell-based, human
Protocol: as §1

KM12 = assay: NCI screen antiproliferative activity, sulforhodamine B, Colon Cancer panel; type: cell-based, human
OVCAR-5 = system: OVCAR-5
NCI/ADR-RES = assay: NCI screen antiproliferative activity, sulforhodamine B, Ovarian Cancer panel; type: cell-based, human
Protocol: as §1

MALME-3M = assay: NCI screen antiproliferative activity, sulforhodamine B, Melanoma panel; type: cell-based, human
TK-10 = system: TK-10
SK-MEL-2 = system: SK-MEL-2
NCI-H23 = system: NCI-H23
SF-539 = system: SF-539
UO-31 = system: UO-31
A498 = assay: NCI screen antiproliferative activity, sulforhodamine B, Renal Cancer panel; type: cell-based, human
Protocol: as §1

M14 = system: M14
PC-3 = system: PC-3
SNB-19 = system: SNB-19
A549/ATCC = system: A549/ATCC
CAKI-1 = system: CAKI-1
HCT-15 = system: HCT-15
HCT-116 = system: HCT-116
MOLT-4 = assay: NCI screen antiproliferative activity, sulforhodamine B, Leukemia panel; type: cell-based, human
NCI-H322M = system: NCI-H322M
K-562 = assay: NCI screen antiproliferative activity, sulforhodamine B, Leukemia panel; type: cell-based, human
OVCAR-4 = system: OVCAR-4
HT29 = system: HT29
SK-MEL-28 = system: SK-MEL-28
T-47D = system: T-47D
SK-MEL-5 = assay: NCI screen antiproliferative activity, sulforhodamine B, Melanoma panel; type: cell-based, human
MDA-MB-435 = system: MDA-MB-435
SK-OV-3 = system: SK-OV-3
ACHN = system: ACHN
HOP-92 = system: HOP-92
RPMI-8226 = assay: NCI screen antiproliferative activity, sulforhodamine B, Leukemia panel; type: cell-based, human
HOP-62 = system: HOP-62
OVCAR-8 = system: OVCAR-8
LOX IMVI = assay: NCI screen antiproliferative activity, sulforhodamine B, Melanoma panel; type: cell-based, human
COLO 205 = assay: NCI screen antiproliferative activity, sulforhodamine B, Colon Cancer panel; type: cell-based, human
SNB-75 = system: SNB-75
SN12C = system: SN12C
MDA-MB-231/ATCC = system: MDA-MB-231/ATCC
MDA-MB-468 = assay: NCI screen antiproliferative activity, sulforhodamine B, Breast Cancer panel; type: cell-based, human
Protocol: as §1

HCC-2998 = system: HCC-2998
786-0 = system: 786-0
MCF7 = system: MCF7
RXF 393 = system: RXF 393
HS 578T = assay: NCI screen antiproliferative activity, sulforhodamine B, Breast Cancer panel; type: cell-based, human
SW-620 = assay: NCI screen antiproliferative activity, sulforhodamine B, Colon Cancer panel; type: cell-based, human
NCI-H522 = system: NCI-H522
SF-268 = system: SF-268
NCI-H226 = system: NCI-H226
OVCAR-3 = system: OVCAR-3
DU-145 = system: DU-145
NCI-H460 = system: NCI-H460

With `CCCCCCCCOC(=O)CC[C@@H](C)[C@H]1CC[C@H]2[C@@H]3[C@H](OC(=O)CCN)C[C@@H]4C[C@H](OC(=O)CCN)CC[C@]4(C)[C@H]3C[C@H](OC(=O)CCN)[C@]12C` [CSA-44] the “Growth Percent” value (BT-549) was 124.30%, the “Growth Percent” value (IGROV1) was 77.22% and the “Growth Percent” value (UACC-62) was 103.61%. For the same compound, the “Growth Percent” value (SR) was −12.92%, the “Growth Percent” value (HL-60(TB)) was 43.69% and the “Growth Percent” value (CCRF-CEM) was −37.46%. The “Growth Percent” value (KM12) was 77.75%, the “Growth Percent” value (OVCAR-5) was 92.12% and the “Growth Percent” value (NCI/ADR-RES) was 100.83%. The “Growth Percent” value (MALME-3M) was 67.83%, the “Growth Percent” value (TK-10) was 135.94% and the “Growth Percent” value (SK-MEL-2) was 126.21%. The “Growth Percent” value (NCI-H23) was 90.31%, the “Growth Percent” value (SF-539) was 56.26% and the “Growth Percent” value (UO-31) was 104.69%. For the same compound, the “Growth Percent” value (A498) was 130.78%, the “Growth Percent” value (M14) was 84.43% and the “Growth Percent” value (PC-3) was 87.30%. The “Growth Percent” value (SNB-19) was 115.74%, the “Growth Percent” value (A549/ATCC) was 81.31% and the “Growth Percent” value (CAKI-1) was 107.94%. For the same compound, the “Growth Percent” value (HCT-15) was 101.79%, the “Growth Percent” value (HCT-116) was 49.30% and the “Growth Percent” value (MOLT-4) was 26.15%. For the same compound, the “Growth Percent” value (NCI-H322M) was 71.42%, the “Growth Percent” value (K-562) was −74.53% and the “Growth Percent” value (OVCAR-4) was 75.66%. The “Growth Percent” value (HT29) was 39.62%, the “Growth Percent” value (SK-MEL-28) was 58.43% and the “Growth Percent” value (T-47D) was 88.83%. The “Growth Percent” value (SK-MEL-5) was 96.98%, the “Growth Percent” value (MDA-MB-435) was 74.13% and the “Growth Percent” value (SK-OV-3) was 90.91%. The “Growth Percent” value (ACHN) was 96.19%, the “Growth Percent” value (HOP-92) was 40.75% and the “Growth Percent” value (RPMI-8226) was 77.75%. The “Growth Percent” value (HOP-62) was 37.66%, the “Growth Percent” value (OVCAR-8) was 69.53% and the “Growth Percent” value (LOX IMVI) was 63.17%. For the same compound, the “Growth Percent” value (COLO 205) was 66.35%, the “Growth Percent” value (SNB-75) was 63.88% and the “Growth Percent” value (SN12C) was 77.59%. For the same compound, the “Growth Percent” value (MDA-MB-231/ATCC) was 69.26%, the “Growth Percent” value (MDA-MB-468) was 3.95% and the “Growth Percent” value (HCC-2998) was 84.20%. The “Growth Percent” value (786-0) was 99.05%, the “Growth Percent” value (MCF7) was 10.84% and the “Growth Percent” value (RXF 393) was 108.72%. For the same compound, the “Growth Percent” value (HS 578T) was 79.51%, the “Growth Percent” value (SW-620) was 20.01% and the “Growth Percent” value (NCI-H522) was 10.80%. The “Growth Percent” value (SF-268) was 69.72%, the “Growth Percent” value (NCI-H226) was 89.76% and the “Growth Percent” value (OVCAR-3) was 107.53%. For the same compound, the “Growth Percent” value (DU-145) was 74.35% and the “Growth Percent” value (NCI-H460) was 73.70%.
